Experiments:
[1] = tested on: mice; test: Treadmill running exercise endurance test in mice after DHB supplementation; assay type: in vivo; details: DHB 13, 19.5 or 26 mg/kg daily for two consecutive months, vs control group
Procedure: (§1) Prior to the experiment, all mice were acclimatized on a treadmill by running at 15% incline and at 10 m/min for two days. After the 2-day acclimatization, 40 mice were randomly divided into four groups as followings (10 for each group): Control group (normal diet supplemented with distilled water), Dihydroberberine (high) group (normal diet supplemented with dihydroberberine 26 mg/kg daily), Dihydroberberine (medium) group: (normal diet supplemented with dihydroberberine 19.5 mg/kg daily), Dihydroberberine (low) group (normal diet supplemented with dihydroberberine 13 mg/kg daily). Each group was fed on a normal diet, other than that, three experimental groups were supplemented with dihydroberberine daily for two consecutive months, while the control group was only supplemented with distilled water at the same time. Exercise endurance of the mice was evaluated by treadmill running. At the beginning of the formal experiment, mice were placed on treadmill, running at 10 m/min for 20 minutes, and then the running speed was increased by 2 m/min every 2nd minutes. End point occurs if the mouse touched the shock grid of the treadmill three times or on the treadmill for 5 consecutive seconds without attempting to reengage the treadmill. At the end point, the running distance, highest running speed, total running time of the mice were recorded^[7].
FIGS. 1-3 show the exercise performance and endurance of mice after supplemented with DHB for two consecutive months.

[2] = tested on: mice; test: SOD, CAT and MDA levels in plasma after treadmill exhaustion test (commercial kits); assay type: in vivo; details: for SOD level in plasma: FIG. 4; for CAT level in plasma: FIG. 5; for MDA level in plasma: FIG. 6
Procedure: as §1
(§2) After the treadmill exhaustion test, blood samples were collected from the mice into heparin tubes. By centrifugation at 4500 rpm for 15 minutes, plasma was separated from the top layer of the whole blood and red blood cells were also separated from the lower layer of the blood. The levels of superoxide dismutase (SOD), catalase (CAT), and malondialdehyde (MDA) in the plasma were determined using commercially available kits.

[3] = tested on: red blood cells; test: ROS, 2,3-DPG and T-AOC in red blood cells after treadmill exhaustion test (commercial kits); assay type: in vivo, mice; details: for T-AOC level in the red blood cell: FIG. 9
Procedure: as §1, §2
The reactive oxygen species (ROS), 2,3-diphosphoglycerate (2,3-DPG), and total antioxidant capacity (T-AOC) in red blood cells were also determined using commercially available kits.

[4] = tested on: AMPK; test: AMPK level in red blood cells after treadmill exhaustion test; assay type: in vivo, mice; details: group supplemented with high dose of DHB (26 mg/kg daily); FIG. 10
Procedure: as §1, with “At the beginning of the formal experiment, mice were placed on treadmill, running at 10 m/min for 20 minutes, and then the running speed was increased by 2 m/min every 2nd minutes. End point occurs if the mouse touched the shock grid of the treadmill three times or on the treadmill for 5 consecutive seconds without attempting to reengage the treadmill.” left out
After the treadmill exhaustion test, blood samples were collected from the mice into heparin tubes. […] The levels of superoxide dismutase (SOD), catalase (CAT), and malondialdehyde (MDA) in the plasma were determined using commercially available kits. […]

[5] = groups with administration of DHB (13, 19.5, 26 mg/kg daily, two months)
[6] = high-dose group (26 mg/kg daily), p<0.001

SMILES: COc1ccc2c(c1OC)CN1CCc3cc4c(cc3C1=C2)OCO4 [DHB, dihydroberberine]
- running distance ([1]; FIG. 1): enhanced endurance and better performance
- highest running speed ([1]; FIG. 2): enhanced endurance and better performance
- running time ([1]; FIG. 3): enhanced endurance and better performance
- SOD level in plasma ([2]; groups supplemented with DHB (13, 19.5, 26 mg/kg daily, two months) vs control): higher than the control group
- CAT level in plasma [2, 5]: increased
- MDA level in plasma [2, 5]: increased
- CAT level in plasma ([2]; high dose group (26 mg/kg daily), p<0.05): increased significantly
- SOD level in plasma ([2]; high-dose DHB group (26 mg/kg daily), p<0.01): increased significantly
- MDA level in plasma [2, 6]: increased significantly
- CAT level in plasma ([2]; middle dose group (19.5 mg/kg daily), p<0.05): increased significantly
- ROS level in the red blood cell ([3]; groups supplemented with DHB (13, 19.5, 26 mg/kg daily, two months), FIG. 7): increased
- 2,3-DPG level in the red blood cell ([3]; groups supplemented with DHB (13, 19.5, 26 mg/kg daily, two months), FIG. 8): increased
- T-AOC level in the red blood cell ([3]; groups supplemented with DHB (13, 19.5, 26 mg/kg daily, two months)): increased
- T-AOC level in the red blood cell [3, 6]: increased significantly
- AMPK level in red blood cells [4]: decreased slightly

Reference: patent US12496294B2, “Methods for improving exercise performance and endurance thereof” (NANJING NUTRABUILDING BIO-TECH CO., LTD., priority 2020, dated 2025)
